Key:
[1] = test system: Wnt activity (Sp5-Luc reporter, SW480 colon carcinoma cells); test: Sp5-Luc reporter gene screening assay for Wnt activity in SW480 cells; assay type: cell-based; details: Homo sapiens; for inhibition at 10 µM: given for EC50 >10 μM, read-out: percent inhibition at 10 μM; for EC50: luminescence, overnight incubation
Text: The screening assay for Wnt activity is described as follows. Reporter cell lines can be generated by stably transducing cancer cell lines (e.g., colon cancer) or primary cells (e.g., IEC-6 intestinal cells) with a lentiviral construct that includes a Wnt-responsive promoter driving expression of the firefly luciferase gene.
SW480 colon carcinoma cells were transduced with a lentiviral vector expressing luciferase with a human Sp5 promoter consisting of a sequence of eight TCF/LEF binding sites. SW480 cells stably expressing the Sp5-Luc reporter gene and a hygromycin resistance gene were selected by treatment with 150 μg/mL of hygromycin for 7 days. These stably transduced SW480 cells were expanded in cell culture and used for all further screening activities. Each compound was dissolved in DMSO as a 10 mM stock and used to prepare compound source plates. Serial dilution (1:3, 10-point dose-response curves starting from 10 μM) and compound transfer was performed using the ECHO 550 (Labcyte, Sunnyvale, Calif.) into 384-well white solid bottom assay plates (Greiner Bio-One) with appropriate DMSO backfill for a final DMSO concentration of 0.1%. For Sp5-Luc reporter gene assays, the cells were plated at 4,000 cells/well in 384-well plates with medium containing 1% fetal bovine serum and incubated overnight at 37° C. and 5% CO2. Following incubation, 20 μl of BrightGlo luminescence reagent (Promega) was added to each well of the 384-well assay plates. The plates were placed on an orbital shaker for 2 min and then luminescence was quantified using the Envision (Perkin Elmer) plate reader. Readings were normalized to DMSO only treated cells, and normalized activities were utilized for EC50 calculations using the dose-response log (inhibitor) vs. response-variable slope (four parameters) nonlinear regression feature available in GraphPad Prism 5.0 (or Dotmatics). For EC50 of >10 μM, the percent inhibition at 10 μM is provided.

[2] = test system: primary human mesenchymal stem cells (hMSCs); test: Induction of chondrogenesis in primary human mesenchymal stem cells (nodule count); assay type: cell-based; details: 144 h, 6 days; for Emax: TGF-β3 10 ng/mL as positive control, read-out: Max. Activity as % TGF-β3 activity; for EC50: concentration required to induce 50% levels of chondrogenesis vs TGF-β3, read-out: Conc (nM) of 50% TGF-β3 activity
Procedure: Representative compounds were screened using primary human mesenchymal stem cells (hMSCs) to determine their ability to induce chondrogenesis (process by which cartilage is developed).
Human Mesenchymal Stem Cell Culture: Primary human mesenchymal stem cells (hMSCs) were purchased from Lonza (Walkersville, Md.) and expanded in Mesenchymal Stem Cell Growth Media (Lonza). Cells between passage 3 and 6 were used for the experiments.
Compound Screening: Each compound was dissolved in DMSO as a 10 mM stock and used to prepare compound source plates. Serial dilution (1:3, 6-point dose-response curves from 2700 nM to 10 nM) and compound transfer was performed using the ECHO 550 (Labcyte, Sunnyvale, Calif.) into 96-well clear bottom assay plates (Greiner Bio-One) with appropriate DMSO backfill for a final DMSO concentration of 0.03%. hMSCs were plated at 20,000 cells/well in 250 μL/well Incomplete Chondrogenic Induction Medium (Lonza; DMEM, dexamethasone, ascorbate, insulin-transferrin-selenium [ITS supplement], gentamycin-amphotericin [GA-1000], sodium pyruvate, proline and L-glutamine). TGF-β3 (10 ng/mL) was used as a positive control for differentiation while negative control wells were treated with 75 nL DMSO for normalization and calculating EC50 values. Cells were incubated at 37° C. and 5% CO2 for 6 days. To image chondrogenic nodules, the cells were fixed using 4% formaldehyde (Electron Microscopy Sciences), and stained with 2 μg/mL Rhodamine B (Sigma-Aldrich) and 20 μM Nile Red (Sigma-Aldrich) [Johnson K., et. al, A Stem Cell-Based Approach to Cartilage Repair, Science, (2012), 336(6082), 717-721]. The nodules imaged (4 images per well at 4× magnification) by excitation at 531 nm and emission at 625 nm and quantified using the CellInsight CX5 (Thermo Scientific). Number of nodules in each well was normalized to the average of 3 DMSO treated wells on the same plate using Excel (Microsoft Inc.). The normalized averages (fold change over DMSO) of 3 replicate wells for each compound concentration were calculated. Due to solubility limitations of some of the compounds, curve fitting was incomplete leading to inaccurate EC50 determinations.
Using TGF-β3 as a positive control, the concentration of representative compounds required to induce 50% levels of chondrogenesis is reported. In addition, the maximum activity of each compound and the respective dose that each compound reached maximum chondrogenesis activity is reported.

Row | EC50 [1] [nM] | EC50 [2] [nM] | SMILES | inhibition at 10 µM [1] [%] | Emax [2] [%]
1 | > 10000 | – | c1csc(-c2nccc3[nH]c(-c4n[nH]c5ccc(-c6ccncc6)nc45)cc23)c1 [Compound 354, 5-(Pyridin-4-yl)-3-(4-(thiophen-2-yl)-1H-pyrrolo[3,2-c]pyridin-2-yl)-1H-pyrazolo[4,3-b]pyridine] | 33.6 | –
2 | 3790 | 10 | Fc1ccccc1-c1nccc2[nH]c(-c3n[nH]c4ccc(-c5cncc(CNCc6ccccc6)c5)nc34)cc12 [Compound 80, N-Benzyl-1-(5-(3-(4-(2-fluorophenyl)-1H-pyrrolo[3,2-c]pyridin-2-yl)-1H-pyrazolo[4,3-b]pyridin-5-yl)pyridin-3-yl)methanamine] | – | 110
3 | 590 | 100 | Fc1ccccc1-c1nccc2[nH]c(-c3n[nH]c4ccc(-c5cn[nH]c5)nc34)cc12 [Compound 539, 3-(4-(2-Fluorophenyl)-1H-pyrrolo[3,2-c]pyridin-2-yl)-5-(1H-pyrazol-4-yl)-1H-pyrazolo[4,3-b]pyridine] | – | 174
4 | 3830 | 10 | Fc1ccc(-c2nccc3[nH]c(-c4n[nH]c5ccc(-c6cncc(OC7CCNCC7)c6)nc45)cc23)cc1 [Compound 528, 3-(4-(4-Fluorophenyl)-1H-pyrrolo[3,2-c]pyridin-2-yl)-5-(5-(piperidin-4-yloxy)pyridin-3-yl)-1H-pyrazolo[4,3-b]pyridine] | – | 54
5 | > 10000 | – | CN1CCN(c2nccc3[nH]c(-c4n[nH]c5ccc(-c6cncc(NC(=O)c7ccccc7)c6)nc45)cc23)CC1 [Compound 235, N-(5-(3-(4-(4-Methylpiperazin-1l-yl)-1H-pyrrolo[3,2-c]pyridin-2-yl)-1H-pyrazolo[4,3-b]pyridin-5-yl)pyridin-3-yl)benzamide] | 49.1 | –
6 | > 10000 | – | CN1CCN(c2nccc3[nH]c(-c4n[nH]c5ccc(-c6cncc(NC(=O)CC7CCNCC7)c6)nc45)cc23)CC1 [Compound 641, N-(5-(3-(4-(4-Methylpiperazin-1l-yl)-1H-pyrrolo[3,2-c]pyridin-2-yl)-1H-pyrazolo[4,3-b]pyridin-5-yl)pyridin-3-yl)-2-(piperidin-4-yl)acetamide] | 2.1 | –
7 | 1140 | 10 | CS(=O)(=O)NCc1cc(F)cc(-c2nccc3[nH]c(-c4n[nH]c5ccc(-c6cncc(NC(=O)C7CCCCC7)c6)nc45)cc23)c1 [Compound 499, N-(5-(3-(4-(3-Fluoro-5-(methylsulfonamidomethyl)phenyl)-1H-pyrrolo[3,2-c]pyridin-2-yl)-1H-pyrazolo[4,3-b]pyridin-5-yl)pyridin-3-yl)cyclohexanecarboxamide] | – | 50
8 | 4410 | – | Fc1cccc(-c2nccc3[nH]c(-c4n[nH]c5ccc(-c6cncc(OCc7ccccc7)c6)nc45)cc23)c1 [Compound 518, 5-(5-(Benzyloxy)pyridin-3-yl)-3-(4-(3-fluorophenyl)-1H-pyrrolo[3,2-c]pyridin-2-yl)-1H-pyrazolo[4,3-b]pyridine] | – | –
9 | 746 | 2700 | CN(C)c1cncc(-c2ccc3[nH]nc(-c4cc5c(-c6cccc(F)c6)nccc5[nH]4)c3n2)c1 [Compound 7, 5-(3-(4-(3-Fluorophenyl)-1H-pyrrolo[3,2-c]pyridin-2-yl)-1H-pyrazolo[4,3-b]pyridin-5-yl)-N,N-dimethylpyridin-3-amine] | – | 153
10 | 313 | 10 | Cc1ccncc1-c1ccc2[nH]nc(-c3cc4c(-c5cc(F)cc(CNS(C)(=O)=O)c5)nccc4[nH]3)c2n1 [Compound 481, N-(3-Fluoro-5-(2-(5-(4-methylpyridin-3-yl)-1H-pyrazolo[4,3-b]pyridin-3-yl)-1H-pyrrolo[3,2-c]pyridin-4-yl)benzyl)methanesulfonamide] | – | 98
11 | 3470 | 2700 | CCNCc1cncc(-c2ccc3[nH]nc(-c4cc5cnccc5[nH]4)c3n2)c1 [Compound 258, N-((5-(3-(1H-Pyrrolo[3,2-c]pyridin-2-yl)-1H-pyrazolo[4,3-b]pyridin-5-yl)pyridin-3-yl)methyl)ethanamine] | – | 99
12 | 3750 | – | Fc1cccc(-c2nccc3[nH]c(-c4n[nH]c5ccc(-c6cncc(CN7CCCCC7)c6)nc45)cc23)c1 [Compound 15, 3-(4-(3-Fluorophenyl)-1H-pyrrolo[3,2-c]pyridin-2-yl)-5-(5-(piperidin-1-ylmethyl)pyridin-3-yl)-1H-pyrazolo[4,3-b]pyridine] | – | 48
13 | 624 | – | CC(C)CC(=O)Nc1cncc(-c2ccc3[nH]nc(-c4cc5c(-c6cc(F)cc(CNS(C)(=O)=O)c6)nccc5[nH]4)c3n2)c1 [Compound 478, N-(5-(3-(4-(3-Fluoro-5-(methylsulfonamidomethyl)phenyl)-1H-pyrrolo[3,2-c]pyridin-2-yl)-1H-pyrazolo[4,3-b]pyridin-5-yl)pyridin-3-yl)-3-methylbutanamide] | – | 33
14 | 692 | – | O=C(Nc1cncc(-c2ccc3[nH]nc(-c4cc5c(-c6ccc(F)cc6)nccc5[nH]4)c3n2)c1)c1ccccc1 [Compound 39, N-(5-(3-(4-(4-Fluorophenyl)-1H-pyrrolo[3,2-c]pyridin-2-yl)-1H-pyrazolo [4,3-b]pyridin-5-yl)pyridin-3-yl)benzamide] | – | –
15 | 100 | 30 | Cc1ncc(-c2ccc3[nH]nc(-c4cc5c(-c6ccncc6)nccc5[nH]4)c3n2)n1C [Compound 573, 5-(1,2-Dimethyl-1H-imidazol-5-yl)-3-(4-(pyridin-4-yl)-1H-pyrrolo[3,2-c]pyridin-2-yl)-1H-pyrazolo[4,3-b]pyridine] | – | 104
16 | > 10000 | – | Cc1ccncc1-c1ccc2[nH]nc(-c3cc4c(-c5ccc(F)cc5)nccc4[nH]3)c2n1 [Compound 33, 3-(4-(4-Fluorophenyl)-1H-pyrrolo[3,2-c]pyridin-2-yl)-5-(4-methylpyridin-3-yl)-1H-pyrazolo[4,3-b]pyridine] | 37.3 | –
17 | 1280 | – | O=C(Nc1cncc(-c2ccc3[nH]nc(-c4cc5c(-c6cccc(F)c6)nccc5[nH]4)c3n2)c1)C1CCCCC1 [Compound 23, N-(5-(3-(4-(3-Fluorophenyl)-1H-pyrrolo[3,2-c]pyridin-2-yl)-1H-pyrazolo [4,3-b]pyridin-5-yl)pyridin-3-yl)cyclohexanecarboxamide] | – | –
18 | 452 | – | Nc1cncc(-c2ccc3[nH]nc(-c4cc5c(-c6ccncc6)nccc5[nH]4)c3n2)c1 [Compound 115, 5-(3-(4-(Pyridin-4-yl)-1H-pyrrolo[3,2-c]pyridin-2-yl)-1H-pyrazolo[4,3-b]pyridin-5-yl)pyridin-3-amine] | – | –
19 | > 10000 | – | Fc1ccccc1-c1nccc2[nH]c(-c3n[nH]c4ccc(-c5cncnc5)nc34)cc12 [Compound 83, 3-(4-(2-Fluorophenyl)-1H-pyrrolo[3,2-c]pyridin-2-yl)-5-(pyrimidin-5-yl)-1H-pyrazolo[4,3-b]pyridine] | 2.1 | –
20 | 3940 | – | CC(C)CC(=O)Nc1cncc(-c2ccc3[nH]nc(-c4cc5c(N6CCN(C)CC6)nccc5[nH]4)c3n2)c1 [Compound 226, 3-Methyl-N-(5-(3-(4-(4-methylpiperazin-1-yl)-1H-pyrrolo[3,2-c]pyridin-2-yl)-1H-pyrazolo[4,3-b]pyridin-5-yl)pyridin-3-yl)butanamide] | – | –

From patent US10231956B2, “3-(1H-pyrrolo[3,2-C]pyridin-2-YL)-1 H-pyrazolo[4,3-B]pyridines and therapeutic uses thereof” (Samumed, LLC, priority 2015, dated 2019)
